Source: patent US20070049564A1 (Wyeth, priority 2005, published 2007)
Values after ≈ are worked out from the molar mass of the structure shown. Read-outs that look alike come from different tables or passages of the source.

Experiments:
Staph. aureus Smith [1] = assay: In vivo activity (oral, iv; ED50) against Staph. aureus Smith in mice
Procedure: Representative examples of compounds of Formula I were tested for the oral efficacy using S. aureus Smith in mice.

E. coli = assay: Range of MIC for E. coli strains; conditions: for MIC: Escherichia coli
Staph. aureus Smith [2] = assay: In vitro activity (MIC) against Staph. aureus Smith; assay type: cell-based; conditions: Staphylococcus aureus; Table 8
Staph. = assay: Range of MIC for Staph. strains, including MRSA; conditions: for MIC: Staphylococcus aureus, MRSA
S. aureus GC 2216 = assay: MIC, broth microdilution
E. coli GC 2272 = assay: MIC, broth microdilution
S. aureus GC 6467 = assay: MIC, broth microdilution
E. coli GC 2203 = assay: MIC, broth microdilution
Salmonella spp. GC 566 = assay: MIC, broth microdilution
Procedure: (§1) Antimicrobial susceptibility testing. The in vitro activities of the antibiotics are determined by the broth microdilution method as recommended by the National Committee for Clinical Laboratory Standards (NCCLS) (1). Mueller-Hinton II broth (MHBII)(BBL Cockeysville, Md.) is the medium employed in the testing procedures. Microtiter plates containing serial dilutions of each antimicrobial agent are inoculated with each organism to yield the appropriate density (10^5 CFU/ml) in a 100 μl final volume. The plates are incubated for 18-22 hours at 35° C. in ambient air.
(§2) Presented in Tables I-XIII are representative compounds of Formula I which were evaluated against a panel of 40 selected gram-positive and gram-negative bacteria strains by pre-incubation in water, mouse serum or human serum. Representative compounds were first incubated in mouse serum for an hour prior to the in vitro testing against a panel of selected gram-positive and gram-negative bacteria strains. All compounds were also pre-incubated in water for an hour prior to testing as control. Representative compounds of Formula I were incubated in human serum prior to MIC determination.

E. coli GC 6465 = assay: MIC, broth microdilution
E. coli GC 2236 = assay: MIC, broth microdilution
E. coli GC 2233 = assay: MIC, broth microdilution
E. coli GC 2231 = assay: MIC, broth microdilution
S. aureus GC 1079 = assay: MIC, broth microdilution
S. aureus GC 6469 = assay: MIC, broth microdilution
S. pneumoniae+ GC 4465 = assay: MIC, broth microdilution
E. coli GC 4559 = assay: MIC, broth microdilution
E. faecalis GC 4555 = assay: MIC, broth microdilution
S. aureus GC 1131 = assay: MIC, broth microdilution
Procedure: as §1
Representative compounds were first incubated in mouse serum for an hour prior to the in vitro testing against a panel of selected gram-positive and gram-negative bacteria strains. All compounds were also pre-incubated in water for an hour prior to testing as control.

E. faecalis GC 2267 = assay: MIC, broth microdilution
S. pneumoniae* GC 4465 = assay: MIC, broth microdilution
Salmonella spp. GC 235 = assay: MIC, broth microdilution
E. coli GC 2271 = assay: MIC, broth microdilution
S. typhimurium GC 2172 = assay: MIC, broth microdilution
S. epidermidis GC 4935 = assay: MIC, broth microdilution
E. faecalis GC 2265 = assay: MIC, broth microdilution
S. pyogenes GC 4563 = assay: MIC, broth microdilution
E. coli GC 2270 = assay: MIC, broth microdilution
S. cholerasius GC 1355 = assay: MIC, broth microdilution
Procedure: as §1, §2

E. faecium GC 2243 = assay: MIC, broth microdilution
c. albicans GC 3066 = assay: MIC, broth microdilution
E. coli GC 2234 = assay: MIC, broth microdilution
E. faecalis GC 2242 = assay: MIC, broth microdilution
S. aureus GC 6466 = assay: MIC, broth microdilution
S. agalactiae GC 4564 = assay: MIC, broth microdilution
E. coli GC 3226 = assay: MIC, broth microdilution
E. faecium GC 4556 = assay: MIC, broth microdilution
E. coli GC 2232 = assay: MIC, broth microdilution
E. coli GC 2235 = assay: MIC, broth microdilution
S. aureus GC 4536 = assay: MIC, broth microdilution
P. aeruginosa GC 2214 = assay: MIC, broth microdilution
S. aureus GC 6335 = assay: MIC, broth microdilution
E. coli GC 1073 = assay: MIC, broth microdilution
E. coli GC 4560 = assay: MIC, broth microdilution

## CCCN(CC(=O)Nc1cc(N(C)C)c2c(c1O)C(=O)C1=C(O)[C@]3(O)C(=O)C(C(N)=O)=C(O)[C@@H](N(C)C)C3CC1C2)C(=O)OCOC(=O)C1CCCCC1 (stereo partly drawn) [Example 33, ({[(2-{[(7S,10aS)-9-(aminocarbonyl)-4,7-bis(dimethylamino)-1,8,10a,11-tetrahydroxy-10,12-dioxo-5,5a,6,6a,7,10,10a,12-octahydrotetracen-2-yl]amino}-2-oxoethyl)(propyl)amino]carbonyl}oxy)methyl cyclohexanecarboxylate]
Staph. aureus Smith [1]; Staphylococcus aureus, in Mus musculus, iv, read-out: ED50 SIV (Staph aureus Smith)
  ED50: 0.48 mg/kg
Staph. aureus Smith [1]; Staphylococcus aureus, in Mus musculus, po, read-out: ED50 SOD (Staph aureus Smith)
  ED50: 4.91 mg/kg
Staph. aureus Smith [1]; Staphylococcus aureus, in Mus musculus, po, read-out: ED50 Staph Smith SOD
  ED50: 4.91 mg/kg
Staph. aureus Smith [1]; iv, read-out: ED50 Staph Smith SIV
  ED50: 0.45 mg/kg
E. coli; 20 h, read-out: Range of MIC, E. coli (Mouse Serum)
  MIC: 0.5 to 2 µg/mL (≈ 0.662 to 2.65 µM)
E. coli; read-out: Range of MIC, E. coli (mouse serum)
  MIC: 0.5 to 2 µg/mL (≈ 0.662 to 2.65 µM)
Staph. aureus Smith [2]
  MIC: 0.12 µg/mL (≈ 0.159 µM)
Staph.; read-out: Range of MIC, Staph (Mouse Serum)
  MIC: 0.12 to 2 µg/mL (≈ 0.159 to 2.65 µM)
Staph.; read-out: Range of MIC, Staph (Water)
  MIC: 0.12 to 2 µg/mL (≈ 0.159 to 2.65 µM)
Staph.; read-out: Range of MIC, Staph. (mouse serum)
  MIC: 0.12 to 2 µg/mL (≈ 0.159 to 2.65 µM)
Staph.; read-out: Range of MIC, Staph. (water)
  MIC: 0.12 to 2 µg/mL (≈ 0.159 to 2.65 µM)

## CCCN(CC(=O)Nc1cc(N(C)C)c2c(c1O)C(=O)C1=C(O)[C@@]3(O)C(=O)C(C(N)=O)=C(O)[C@@H](N(C)C)C3CC1C2)C(=O)OCc1oc(=O)oc1C (stereo partly drawn) [Example 108, (5-methyl-2-oxo-1,3-dioxol-4-yl)methyl 2-{[(7S,10aR)-9-(aminocarbonyl)-4,7-bis(dimethylamino)-1,8,10a,11-tetrahydroxy-10,12-dioxo-5,5a,6,6a,7,10,10a,12-octahydrotetracen-2-yl]amino}-2-oxoethyl(propyl)carbamate]
S. aureus GC 2216; pre-incubation in mouse serum
  MIC: 0.50 UG/ML
S. aureus GC 2216; pre-incubation in water
  MIC: 1 UG/ML
E. coli GC 2272; pre-incubation in mouse serum
  MIC: 0.25 UG/ML
E. coli GC 2272; pre-incubation in water
  MIC: 0.50 UG/ML
S. aureus GC 6467; pre-incubation in mouse serum
  MIC: 2 UG/ML
S. aureus GC 6467; pre-incubation in water
  MIC: 8 UG/ML
E. coli GC 2203; pre-incubation in mouse serum
  MIC: 0.50 UG/ML
E. coli GC 2203; pre-incubation in water
  MIC: 1 UG/ML
Salmonella spp. GC 566; pre-incubation in mouse serum
  MIC: 1 UG/ML
Salmonella spp. GC 566; pre-incubation in water
  MIC: 8 UG/ML
Staph. aureus Smith [1]; single intravenous dose (SIV)
  ED50 Staph Smith SIV: >2 mg/kg
Staph. aureus Smith [1]; single oral dose (SOD)
  ED50 Staph Smith SOD: >32 mg/kg
E. coli GC 6465; pre-incubation in mouse serum
  MIC: 8 UG/ML
E. coli GC 6465; pre-incubation in water
  MIC: 64 UG/ML
E. coli GC 2236; pre-incubation in mouse serum
  MIC: 0.50 UG/ML
E. coli GC 2236; pre-incubation in water
  MIC: 2 UG/ML
E. coli GC 2233; pre-incubation in mouse serum
  MIC: 0.50 UG/ML
E. coli GC 2233; pre-incubation in water
  MIC: 1 UG/ML
E. coli GC 2231; pre-incubation in mouse serum
  MIC: 2 UG/ML
E. coli GC 2231; pre-incubation in water
  MIC: 4 UG/ML
S. aureus GC 1079; pre-incubation in mouse serum
  MIC: 2 UG/ML
S. aureus GC 1079; pre-incubation in water
  MIC: 4 UG/ML
S. aureus GC 6469; pre-incubation in mouse serum
  MIC: 0.25 UG/ML
S. aureus GC 6469; pre-incubation in water
  MIC: 1 UG/ML
S. pneumoniae+ GC 4465; pre-incubation in mouse serum
  MIC: 1 UG/ML
S. pneumoniae+ GC 4465; pre-incubation in water
  MIC: 2 UG/ML
E. coli GC 4559; pre-incubation in mouse serum
  MIC: 0.50 UG/ML
E. coli GC 4559; pre-incubation in water
  MIC: 1 UG/ML
E. faecalis GC 4555; pre-incubation in mouse serum
  MIC: 0.50 UG/ML
E. faecalis GC 4555; pre-incubation in water
  MIC: 0.50 UG/ML
S. aureus GC 1131; pre-incubation in mouse serum
  MIC: 0.25 UG/ML
S. aureus GC 1131; pre-incubation in water
  MIC: 0.50 UG/ML
E. coli; Mouse Serum, Table 1
  Range of MIC, E. coli (Mouse Serum): 0.5 to 2 µg/mL
E. coli; Water, Table 1
  Range of MIC, E. coli (Water): 0.5 to 4 µg/mL
E. faecalis GC 2267; pre-incubation in mouse serum
  MIC: 1 UG/ML
E. faecalis GC 2267; pre-incubation in water
  MIC: 2 UG/ML
S. pneumoniae* GC 4465; pre-incubation in mouse serum
  MIC: 0.12 UG/ML
S. pneumoniae* GC 4465; pre-incubation in water
  MIC: 0.12 UG/ML
Salmonella spp. GC 235; pre-incubation in mouse serum
  MIC: 1 UG/ML
Salmonella spp. GC 235; pre-incubation in water
  MIC: 4 UG/ML
E. coli GC 2271; pre-incubation in mouse serum
  MIC: 0.50 UG/ML
E. coli GC 2271; pre-incubation in water
  MIC: 0.50 UG/ML
S. typhimurium GC 2172; pre-incubation in mouse serum
  MIC: 4 UG/ML
S. typhimurium GC 2172; pre-incubation in water
  MIC: 32 UG/ML
S. epidermidis GC 4935; pre-incubation in mouse serum
  MIC: 1 UG/ML
S. epidermidis GC 4935; pre-incubation in water
  MIC: 2 UG/ML
E. faecalis GC 2265; pre-incubation in mouse serum
  MIC: 1 UG/ML
E. faecalis GC 2265; pre-incubation in water
  MIC: 2 UG/ML
S. pyogenes GC 4563; pre-incubation in mouse serum
  MIC: 0.12 UG/ML
S. pyogenes GC 4563; pre-incubation in water
  MIC: 0.12 UG/ML
E. coli GC 2270; pre-incubation in mouse serum
  MIC: 0.50 UG/ML
E. coli GC 2270; pre-incubation in water
  MIC: 1 UG/ML
S. cholerasius GC 1355; pre-incubation in mouse serum
  MIC: 32 UG/ML
S. cholerasius GC 1355; pre-incubation in water
  MIC: 64 UG/ML
E. faecium GC 2243; pre-incubation in mouse serum
  MIC: 0.50 UG/ML
E. faecium GC 2243; pre-incubation in water
  MIC: 0.50 UG/ML
c. albicans GC 3066; pre-incubation in mouse serum
  MIC: >64 UG/ML
c. albicans GC 3066; pre-incubation in water
  MIC: >64 UG/ML
E. coli GC 2234; pre-incubation in mouse serum
  MIC: 0.50 UG/ML
E. coli GC 2234; pre-incubation in water
  MIC: 2 UG/ML
E. faecalis GC 2242; pre-incubation in mouse serum
  MIC: 0.50 UG/ML
E. faecalis GC 2242; pre-incubation in water
  MIC: 1 UG/ML
S. aureus GC 6466; pre-incubation in mouse serum
  MIC: 0.50 UG/ML
S. aureus GC 6466; pre-incubation in water
  MIC: 1 UG/ML
S. agalactiae GC 4564; pre-incubation in mouse serum
  MIC: 0.12 UG/ML
S. agalactiae GC 4564; pre-incubation in water
  MIC: 0.12 UG/ML
E. coli GC 3226; pre-incubation in mouse serum
  MIC: 0.50 UG/ML
E. coli GC 3226; pre-incubation in water
  MIC: 1 UG/ML
E. faecium GC 4556; pre-incubation in mouse serum
  MIC: 0.50 UG/ML
E. faecium GC 4556; pre-incubation in water
  MIC: 1 UG/ML
E. coli GC 2232; pre-incubation in mouse serum
  MIC: 1 UG/ML
E. coli GC 2232; pre-incubation in water
  MIC: 2 UG/ML
E. coli GC 2235; pre-incubation in mouse serum
  MIC: 0.50 UG/ML
E. coli GC 2235; pre-incubation in water
  MIC: 1 UG/ML
S. aureus GC 4536; pre-incubation in mouse serum
  MIC: 0.50 UG/ML
S. aureus GC 4536; pre-incubation in water
  MIC: 1 UG/ML
P. aeruginosa GC 2214; pre-incubation in mouse serum
  MIC: 16 UG/ML
P. aeruginosa GC 2214; pre-incubation in water
  MIC: 32 UG/ML
S. aureus GC 6335; pre-incubation in mouse serum
  MIC: 1 UG/ML
S. aureus GC 6335; pre-incubation in water
  MIC: 2 UG/ML
E. coli GC 1073; pre-incubation in mouse serum
  MIC: 0.50 UG/ML
E. coli GC 1073; pre-incubation in water
  MIC: 2 UG/ML
Staph.; Mouse Serum, including MRSA, Table 1
  Range of MIC, Staph (Mouse Serum): 0.25 to 2 µg/mL
Staph.; Water, including MRSA, Table 1
  Range of MIC, Staph (Water): 1 to 8 µg/mL
E. coli GC 4560; pre-incubation in mouse serum
  MIC: 0.12 UG/ML
E. coli GC 4560; pre-incubation in water
  MIC: 0.25 UG/ML
